Laboratory results from patent US10175256B2, “Compositions and methods utilizing lysophosphatidylcholine scaffolds” (National University Of Singapore, priority 2013, dated 2019).
Entries after “also recorded” stand apart in the source; their conditions may differ.

How the values were obtained:
Mfsd2a [1] = target: T1, Mfsd2a (Mus musculus, UniProt Q9DA75); assay: In vivo transport of radiolabeled, fluorescent LPCs and unesterified DHA in Mfsd2a KO and wild-type mice; set-up: from tissue; host or cells: living mice; brain (blood-brain barrier endothelium), liver, heart; fetal brain
T1 sequence (Q9DA75 1-534): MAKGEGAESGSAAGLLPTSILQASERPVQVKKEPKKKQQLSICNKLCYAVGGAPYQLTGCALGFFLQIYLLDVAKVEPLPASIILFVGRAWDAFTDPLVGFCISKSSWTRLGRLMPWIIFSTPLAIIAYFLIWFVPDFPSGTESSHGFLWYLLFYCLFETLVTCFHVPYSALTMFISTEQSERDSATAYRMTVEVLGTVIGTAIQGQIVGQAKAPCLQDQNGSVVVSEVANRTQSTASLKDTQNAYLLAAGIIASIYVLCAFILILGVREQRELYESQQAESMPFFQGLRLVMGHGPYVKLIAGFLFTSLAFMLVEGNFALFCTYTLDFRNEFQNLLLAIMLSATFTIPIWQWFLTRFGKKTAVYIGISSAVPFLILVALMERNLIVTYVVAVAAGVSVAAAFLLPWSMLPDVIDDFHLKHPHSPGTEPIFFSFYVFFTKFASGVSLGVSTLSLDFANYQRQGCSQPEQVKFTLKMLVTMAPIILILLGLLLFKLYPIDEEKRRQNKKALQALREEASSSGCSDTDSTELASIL
Experimental: Male and female mice of age of 6-8 weeks were IV injected with 75 μl of 20 mM radiolabeled LPC-[…], 100 μl of 10 mM LPC-[^14C]DHA/BSA complex or 82 μl of 12.2 mM [^14C]DHA/BSA complex in a total volume of 150 μl of phosphate-buffered saline. At 2 hours post injection, mice were anesthetized and perfused for 5 mins with PBS containing 0.5% BSA in order to remove blood and lipid tracer bound to the brain vasculature. Tissues were harvested for lipid extraction. For lipid extraction, tissues were weighed and similar amounts of tissues were homogenized in chloroform/methanol. Lipids from the organic phase were mixed with scintillant and scintillation counted. Similar experiments were also performed with an injection of 300 μg NBD-LPC/BSA or 300 μg TopFluor-LPC/BSA complex per mouse. In this experiment, mice were perfused for 5 mins with PBS followed 15 mins perfusion with 4% paraformaldehyde (PFA) for tissue fixation. Brain sections of WT and KO with a thickness of 40 μm were prepared and scanned using green fluorescence mode in Typhoon FLA 9000 scanner (Agilent). NBD-LPC accumulation was expressed as fluorescence of each section per its area. Dietary DHA transport from mother to fetus was also measured using [^14C]DHA/BSA complex. Pregnant females at e18.5 was gavaged with bolus of [^14C]DHA/BSA complex (200 μl of 10 mM [^14C]DHA/BSA/mouse). Brain of fetuses were collected 20 hours post-gavage and weighed. Lipid extraction and radioactivity were performed as described above.

mouse Mfsd2a [2] = target: T2, mouse Mfsd2a (Mus musculus, UniProt Q9DA75); assay: In vitro transport (uptake) of radiolabeled and fluorescent LPCs in HEK293 cells overexpressing Mfsd2a; format: cell-based; details: for comparison of Mfsd2a-mediated uptake (capacity to transport): HEK293 cells expressing Mfsd2a
T2 construct: expressed in transfected cells; host or cells: HEK293
T2 sequence (Q9DA75 1-534): T1 sequence (Q9DA75 1-534)
Experimental: Uptake assays of radiolabeled LPCs or fluorescent LPCs were tested using HEK293 cells overexpressing Mfsd2a and mutants constructs. Briefly, HEK293 cells at 90-95% confluency were transfected using LIPOFECTAMINE 2000 (Invitrogen) with pcDNA3.1Mfsd2a (WT), pcDNA3.1Mfsd2aD92A (D92A), pcDNA3.1Mfsd2aD96A (D96A), or pcDNA3.1 (mock) plasmids. Uptake assays were performed after 24 hours of transfections. Prior to ligand incubation, HEK293 transfected cells were washed with serum-free DMEM before assays. For concentration and time dependent assays, radiolabeled LPCs were diluted in pre-warmed DMEM media. For sodium dependent assay, radiolabeled LPCs were diluted in transport buffer (5 mM KCl, 10 mM Hepes, pH 7.4) with 150 mM NaCl or 150 mM choline chloride. For sodium concentration dependent assays, any reductions in the concentration of NaCl were replaced by choline chloride in order to maintain a constant cation molarity of 150 mM. All assays were performed in 12 well-plates with triplicates and at 37° C.

mouse Mfsd2a [3] = target: T2, mouse Mfsd2a; assay: TLC analysis of phospholipids (bio-incorporation of LPC into PC); format: cell-based
Experimental: HEK293 cells overexpressing with pcDNA3.1Mfsd2a (WT), pcDNA3.1Mfsd2aD92A (D92A), pcDNA3.1Mfsd2aD96A, or pcDNA3.1 (mock) plasmids or human Mfsd2a (in Sport6 plasmid) were washed once with serum-free DMEM medium before incubation with 50 μM radiolabeled LPC [^14C]oleate, LPC [^14C]DHA or with 50 μM TopFluor-LPC and NBD-LPC. Lipids were extracted twice with HIP buffer for 30 mins. Lipids were dried with nitrogen stream and reconstituted in chloroform and spotted on TLC plates (Milipore). Solvent for phospholipid separation was chloroform/methanol/ammonia solution (25%) (50:25:6, per volume). TLC plates of radiolabeled phospholipids were dried for 30 mins and exposed overnight to Phosphorscreens and scanned with Typhoon FLA 9000 scanner (Agilent). TLC plates of fluorescent phospholipids were scanned with Typhoon FLA 9000 scanner and quantified using Imagequant software.

Mfsd2a [4] = target: T1, Mfsd2a; assay: Competition transport assay with LPC-[3H]palmitate as ligand; format: cell-based; set-up: expressed in transfected cells; host or cells: HEK293; details: 25 μM LPC-[3H]palmitate; for competition for transport/uptake of LPC-[3H]palmitate: 10-fold molar excess (250 μM) competitor, 30 mins (PAF 15 mins)
Experimental: Briefly, 24 h post transfection of HEK293 cells with pcDNA3.1Mfsd2a (WT), pcDNA3.1Mfsd2aD92A (D92A), pcDNA3.1Mfsd2aD96A, or pcDNA3.1 (mock) plasmids were washed once with serum-free DMEM medium before addition of a mixture of 25 μM radiolabeled LPC-palmitate and 250 μM cold competitors, which were dissolved in 12% BSA. Total BSA concentration was kept constant in samples with or without cold competitors. Assays were performed at 37° C. for 30 mins. Competition assays with other LPC analogs such as foscholine detergents, and PAF were performed under the same conditions except for 15 mins. The reduced reaction time was necessary in order to limit potential negative effects of detergents and bioactive lipids on cell survival. All assays were performed in 12 well-plates with triplicates and at 37° C.
We next sought to determine ligand specificity and the chemical features of the LPC ligands that are required for transport by Mfsd2a.

Molecule: C[N+](C)(C)CCOP(=O)([O-])OC[C@H](O)COC(=O)CCCCCCCCCCCNc1ccc([N+](=O)[O-])c2nonc12 [NBD-LPC]
- brain uptake (fluorescence of brain sections) in KO compared with wild-type (Mfsd2a [1]; 300 μg fluorescent LPC/BSA complex i.v.): significantly reduced
- uptake/transport of fluorescent lysolipid by cells expressing wild-type Mfsd2a (mouse Mfsd2a [2]; HEK293 cells, vs mock, D92A, D96A): transported by Mfsd2a; also recorded: significantly enhanced uptake activity
- bio-incorporation of fluorescent LPC into phospholipids (PC) (mouse Mfsd2a [3]; HEK293 cells, 50 μM, TLC): bio-incorporated into membrane phospholipids

Molecule: CCC=CCC=CCC=CCC=CCC=CCC=CCCC(=O)OC[C@@H](O)COP(=O)([O-])OCC[N+](C)(C)C [LPC-[^14C]DHA, 1-docosahexaenoyl 2-lysophosphocholine]
- reduction in brain uptake in Mfsd2a KO mice compared with wild-type (Mfsd2a [1]; i.v. injection, 2 hrs post-injection): more than 90%
- uptake in peripheral tissues of KO mice compared with wild-type (Mfsd2a [1]; i.v. injection, liver and heart, 2 hrs): not decreased
- brain uptake, unesterified DHA compared with LPC-DHA (Mfsd2a [1]; wild-type brain, same amount injected i.v., 2 hrs): far greater
- comparison of Mfsd2a-mediated uptake (capacity to transport) (mouse Mfsd2a [2]): highest capacity
- uptake of radiolabeled LPC by cells expressing Mfsd2a relative to control cells (mouse Mfsd2a [2]; HEK293 cells, wild-type Mfsd2a vs mock, LPC/BSA, 30 mins): enhanced concentration-dependent uptake
- conversion of transported LPCs into PCs (mouse Mfsd2a [3]; HEK293 cells expressing Mfsd2a, radiolabeled LPC, TLC): rapid conversion of transported LPCs into PCs

Molecule: CCCCCCCCCCCCCCCCCC(=O)OC[C@@H](O)COP(=O)([O-])OCC[N+](C)(C)C [LPC-18:0]
- effect of cold LPC on transport of NBD-LPC (mouse Mfsd2a [3]; 10-fold molar excess of competitor): suppressed

Molecule: CCCCCCCCCCCCOP(=O)([O-])OCC[N+](C)(C)C [Fos-12]
- competition of foscholines with LPC-[3H]palmitate (Mfsd2a [4]; 250 μM competitor, 15 mins): did not compete

Molecule: platelet activating factor
- competition for transport/uptake of LPC-[3H]palmitate (Mfsd2a [4]): strong competitors
- competition for transport/uptake of LPC-[3H]palmitate (Mfsd2a [4]; listed as PAF): strong competition

Molecule: CCCCCCCCCCCCCCCC(=O)OC[C@@H](O)COP(=O)([O-])OCC[N+](C)(C)C [LPC-[^3H]palmitate, 1-palmitoyl 2-lysophosphocholine]
- comparison of Mfsd2a-mediated uptake (capacity to transport) (mouse Mfsd2a [2]): highest capacity to transport LPC-DHA, followed by LPC-oleate, and LPC-palmitate
